# pIC50: −log10 of the molar value.
# Experiments:
# [1] = target: T1, ALK5 (Homo sapiens, UniProt P36897); assay: ALK5 enzyme inhibition assay (casein substrate, 10 uM ATP, 33P-ATP, filter-binding; Reaction Biology Corp); type: biochemical
# T1 construct: purchased Reaction Biology Corp (Malvern, Pa.)
# T1 sequence (P36897 34-503): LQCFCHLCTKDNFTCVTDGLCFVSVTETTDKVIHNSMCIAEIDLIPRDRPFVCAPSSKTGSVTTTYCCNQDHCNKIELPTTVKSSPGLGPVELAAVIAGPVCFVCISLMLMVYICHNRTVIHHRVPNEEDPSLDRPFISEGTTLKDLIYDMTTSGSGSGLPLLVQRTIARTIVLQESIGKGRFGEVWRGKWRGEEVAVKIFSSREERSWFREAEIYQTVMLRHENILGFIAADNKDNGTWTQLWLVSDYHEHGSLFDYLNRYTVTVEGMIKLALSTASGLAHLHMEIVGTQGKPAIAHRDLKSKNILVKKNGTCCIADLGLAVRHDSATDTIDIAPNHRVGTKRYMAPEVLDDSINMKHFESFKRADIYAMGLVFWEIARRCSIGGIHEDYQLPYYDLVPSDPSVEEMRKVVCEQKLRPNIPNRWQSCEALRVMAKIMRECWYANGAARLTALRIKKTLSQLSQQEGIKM
# Description: ALK5 enzyme inhibition assays were performed by Reaction Biology Corp (Malvern, Pa.). 1 mg/mL of peptide substrate (casein) and 10 uM ATP were prepared in a mixture of fresh reaction buffer. The kinase was delivered into the substrate solution which was gently mixed. Compounds in 100% DMSO were added to the kinase reaction mixture by Acoustic technology (Echo550; nanoliter range) and the mixture was incubated for 20 min at room temperature. ^33P-ATP (Specific activity 10 uCi/uL) was added into the reaction mixture to initiate the reaction and the reaction mixture was incubated for 2 hours at room temperature. Radioactivity was detected by filter-binding method and kinase activity data were expressed as the percent remaining kinase activity in test samples compared to vehicle (dimethyl sulfoxide) reactions. IC50 values and curve fits were obtained using Prism (GraphPad Software).
# [2] = test system: TGFβ/SMAD Signaling Pathway SBE reporter cell line; assay: TGFb reporter assay in HEK293 SBE-LUC reporter cells (luciferase); type: cell-based; conditions: Homo sapiens, key of the table says IC50, read-out: EC50 (the source's name)
# Description: TGFβ/SMAD Signaling Pathway SBE reporter cell line was obtained from BPS Bioscience. Cells are passed, expanded, and stored in liquid nitrogen as per the supplier's instructions with the exception that growth media is changed to DMEM-C with Geneticin (DMEM supplemented with 10% fetal bovine serum, 1×NEAA, 1 mM Pyruvate, 2 mM glutamine, 50 μg/mL penicillin, 50 U/mL streptomycin and 400 μg/mL of Geneticin). The assay media is MEM supplemented with 0.5% fetal bovine serum, 1×NEAA, 1 mM Pyruvate, 50 μg/mL penicillin and 50 U/mL streptomycin.
# Compounds are assayed to measure their activity as ALK5 inhibitors.
# The HEK293 SBE-LUC reporter cells from Example 15 were grown in DMEM-C with Geneticin (DMEM supplemented with […], 1×NEAA, 1 mM Pyruvate, 2 mM glutamine, 50 μg/mL penicillin, 50 U/mL streptomycin and 400 ug/mL of Geneticin). The assay media was MEM supplemented with 0.5% fetal bovine serum, 1×NEAA, 1 mM Pyruvate, 50 μg/mL penicillin and 50 U/mL streptomycin.
# The HEK293 SBE-LUC reporter cells were harvested from the tissue culture flasks by incubation in small quantity of Versene at room temperature for three to five minutes after the media in the flask is removed and cells rinsed with PBS. Cells were counted and diluted in the assay media at ˜0.8×10^6 cells/mL then 50 uL/well were added to 96-well assay plate. Test samples (at desired concentrations diluted in assay media) were added to assay plate containing the 50 uL/well of cells (or media only), 50 uL per well, and incubated for 5-6 hours at 37° C. in a 5% CO2 humidified incubator. After that time, 15 uL of TGFb diluted to 12.5 ng/mL in the assay media was added to the plate. Controls included TGFb titration (from 25 to 0 ng/mL) without inhibitors, and media only (without cells, inhibitor or TGFb). Plates were incubated at 37° C. in a 5% CO2 humidified incubator for 18h. Luciferase substrate solution was subsequently added at 75 uL per well, incubated in dark with shaking at room temperature for 10 min, and luminescence was measured using a luminometer.
smiles,measurement,setting,value
Cc1cccc(-c2nc(CNc3cccc4c3CC(N)C4)[nH]c2-c2ccc3ncnn3c2)n1 (centres unmarked) [Compound 1.22],pIC50,[1]; Table 12,5.00 to 6.00
same,pIC50,[2],6.00 to 7.00
CC(=O)NC1Cc2cccc(NCc3nc(-c4cccc(C)n4)c(-c4ccc5ncnn5c4)[nH]3)c2C1 (centres unmarked) [Compound 1.23],pIC50,[1]; Table 12,7.00 to 8.00
same,pIC50,[2],6.00 to 7.00
Cc1cccc(-c2nc(CNc3ccc4c(c3)CC(N)C4)[nH]c2-c2ccc3ncnn3c2)n1 (centres unmarked) [Compound 1.24],pIC50,[1]; Table 12,6.00 to 7.00
same,pIC50,[2],6.00 to 7.00
Cc1cccc(-c2nc(CN[C@@H]3CCc4ccccc43)[nH]c2-c2ccn3ncnc3c2)n1 [Compound 1.30],pIC50,[1]; Table 12,6.00 to 7.00
same,pIC50,[2],7.00 to 8.00
Cc1cccc(-c2nc(CNc3cccc4c3CNC4)[nH]c2-c2ccn3ncnc3c2)n1 [Compound 1.31],pIC50,[1]; Table 12,6.00 to 7.00
same,pIC50,[2],6.00 to 7.00
Cc1cccc(-c2nc(CN[C@H]3CCCC[C@@H]3F)[nH]c2-c2ccn3ncnc3c2)n1 [Compound 1.32],pIC50,[1]; Table 12,7.00 to 8.00
same,pIC50,[2],6.00 to 7.00
Cc1cccc(-c2nc(CN[C@H]3CCCC[C@H]3F)[nH]c2-c2ccn3ncnc3c2)n1 [Compound 1.33],pIC50,[1]; Table 12,6.00 to 7.00
same,pIC50,[2],6.00 to 7.00
Cc1cccc(-c2nc(CN[C@H]3CCc4ccccc43)[nH]c2-c2ccn3ncnc3c2)n1 [Compound 1.34],pIC50,[1]; Table 12,6.00 to 7.00
same,pIC50,[2],6.00 to 7.00
Cc1cccc(-c2nc(C3CCCNC3)[nH]c2-c2ccc3ncnn3c2)n1 (centres unmarked) [Compound 1.48],pIC50,[1]; Table 12,5.00 to 6.00
same,pIC50,[2],6.00 to 7.00
Cc1cccc(-c2nc(C3CCN(C(=O)OC(C)(C)C)C3)[nH]c2-c2ccc3ncnn3c2)n1 (centres unmarked) [Compound 1.51],pIC50,[1]; Table 12,5.00 to 6.00
same,pIC50,[2],6.00 to 7.00
Cc1cccc(-c2nc(C3CN(C(=O)OC(C)(C)C)C3)[nH]c2-c2ccc3ncnn3c2)n1 [Compound 1.52],pIC50,[1]; Table 12,5.00 to 6.00
same,pIC50,[2],6.00 to 7.00
Cc1cccc(-c2nc(C34CCC(N)(CC3)CC4)[nH]c2-c2ccc3ncnn3c2)n1 [Compound 1.55],pIC50,[1]; Table 12,5.00 to 6.00
same,pIC50,[2],5.00 to 6.00
Cc1cccc(-c2nc(CNCc3cccc(Cl)c3)[nH]c2-c2ccc3ncnn3c2)n1 [Compound 2],pIC50,[1]; Table 11,6.00 to 7.00
same,pIC50,[2],7.00 to 8.00
Cc1cccc(-c2nc(CNCc3ccc(Cl)cc3)[nH]c2-c2ccc3ncnn3c2)n1 [Compound 3],pIC50,[1]; Table 11,5.00 to 6.00
same,pIC50,[2],7.00 to 8.00
Cc1cccc(-c2nc(CNCc3ccc(Cl)c(Cl)c3)[nH]c2-c2ccc3ncnn3c2)n1 [Compound 4],pIC50,[1]; Table 11,6.00 to 7.00
same,pIC50,[2],6.00 to 7.00
Cc1cccc(-c2nc(CNCc3cc(Cl)ccc3Cl)[nH]c2-c2ccc3ncnn3c2)n1 [Compound 5],pIC50,[1]; Table 11,7.00 to 7.30
same,pIC50,[2],7.00 to 8.00
Cc1cccc(-c2nc(CNCc3c(Cl)cccc3Cl)[nH]c2-c2ccc3ncnn3c2)n1 [Compound 6],pIC50,[1]; Table 11,7.30 to 10.00
same,pIC50,[2],8.00 to 10.00
COc1cccc(CNCc2nc(-c3cccc(C)n3)c(-c3ccc4ncnn4c3)[nH]2)c1 [Compound 7],pIC50,[1]; Table 11,6.00 to 7.00
same,pIC50,[2],8.00 to 10.00
COc1ccc(CNCc2nc(-c3cccc(C)n3)c(-c3ccc4ncnn4c3)[nH]2)cc1 [Compound 8],pIC50,[1]; Table 11,5.00 to 6.00
same,pIC50,[2],6.00 to 7.00
COc1ccc(OC)c(CNCc2nc(-c3cccc(C)n3)c(-c3ccc4ncnn4c3)[nH]2)c1 [Compound 9],pIC50,[1]; Table 11,6.00 to 7.00
same,pIC50,[2],7.00 to 8.00
Cc1cccc(-c2nc(CNCc3ccccc3Cl)[nH]c2-c2ccn3ncnc3c2)n1 [Compound 10],pIC50,[1]; Table 11,7.30 to 10.00
same,pIC50,[2],8.00 to 10.00
Cc1cccc(-c2nc(CN[C@H](C)c3ccccc3)[nH]c2-c2ccc3ncnn3c2)n1 [Compound 11],pIC50,[1]; Table 11,6.00 to 7.00
same,pIC50,[2],7.00 to 8.00
Cc1cccc(-c2nc(CN[C@@H](C)c3ccccc3)[nH]c2-c2ccc3ncnn3c2)n1 [Compound 12],pIC50,[1]; Table 11,5.00 to 6.00
same,pIC50,[2],6.00 to 7.00
Cc1cccc(-c2nc(CNC(c3ccccc3)c3ccccc3)[nH]c2-c2ccc3ncnn3c2)n1 [Compound 13],pIC50,[1]; Table 11,7.00 to 7.30
same,pIC50,[2],8.00 to 10.00
Cc1cccc(-c2nc(CN[C@@H](CO)c3ccccc3)[nH]c2-c2ccc3ncnn3c2)n1 [Compound 14],pIC50,[1]; Table 11,7.00 to 7.30
same,pIC50,[2],7.00 to 8.00
COC(=O)[C@H](NCc1nc(-c2cccc(C)n2)c(-c2ccc3ncnn3c2)[nH]1)c1ccccc1 [Compound 15],pIC50,[1]; Table 11,7.00 to 7.30
same,pIC50,[2],6.00 to 7.00
COC(=O)[C@@H](NCc1nc(-c2cccc(C)n2)c(-c2ccc3ncnn3c2)[nH]1)c1ccccc1 [Compound 16],pIC50,[1]; Table 11,7.30 to 10.00
same,pIC50,[2],6.00 to 7.00
COc1ccccc1CNCc1nc(-c2cccc(C)n2)c(-c2ccc3ncnn3c2)[nH]1 [Compound 17],pIC50,[1]; Table 11,7.00 to 7.30
same,pIC50,[2],7.00 to 8.00
Cc1cccc(-c2nc(CNCc3ccccc3F)[nH]c2-c2ccc3ncnn3c2)n1 [Compound 18],pIC50,[1]; Table 11,7.30 to 10.00
same,pIC50,[2],8.00 to 10.00
Cc1cccc(-c2nc(CNCc3ccccc3C#N)[nH]c2-c2ccc3ncnn3c2)n1 [Compound 20],pIC50,[1]; Table 11,5.00 to 6.00
same,pIC50,[2],6.00 to 7.00
Cc1cccc(-c2nc(CNCc3ccccc3C)[nH]c2-c2ccc3ncnn3c2)n1 [Compound 21],pIC50,[1]; Table 11,7.30 to 10.00
same,pIC50,[2],8.00 to 10.00
CCc1ccccc1CNCc1nc(-c2cccc(C)n2)c(-c2ccc3ncnn3c2)[nH]1 [Compound 22],pIC50,[1]; Table 11,7.30 to 10.00
same,pIC50,[2],8.00 to 10.00
Cc1cccc(-c2nc(CNCc3ccccc3C(C)C)[nH]c2-c2ccc3ncnn3c2)n1 [Compound 23],pIC50,[1]; Table 11,7.00 to 7.30
same,pIC50,[2],8.00 to 10.00
Cc1cccc(-c2nc(CNCc3ccccc3-c3ccccc3)[nH]c2-c2ccc3ncnn3c2)n1 [Compound 24],pIC50,[1]; Table 11,7.30 to 10.00
same,pIC50,[2],8.00 to 10.00
Cc1cccc(-c2nc(CNCc3ccccc3N(C)C)[nH]c2-c2ccc3ncnn3c2)n1 [Compound 25],pIC50,[1]; Table 11,6.00 to 7.00
same,pIC50,[2],8.00 to 10.00
Cc1cccc(-c2nc(CNCc3ccccc3OC(F)(F)F)[nH]c2-c2ccc3ncnn3c2)n1 [Compound 26],pIC50,[1]; Table 11,7.30 to 10.00
same,pIC50,[2],8.00 to 10.00
Cc1cccc(-c2nc(CNCc3ccccc3CC(F)(F)F)[nH]c2-c2ccc3ncnn3c2)n1 [Compound 27],pIC50,[1]; Table 11,7.00 to 7.30
same,pIC50,[2],8.00 to 10.00
Cc1cccc(-c2nc(CNCc3ccccc3C(O)C(F)(F)F)[nH]c2-c2ccc3ncnn3c2)n1 (centres unmarked) [Compound 28],pIC50,[1]; Table 11,7.30 to 10.00
same,pIC50,[2],8.00 to 10.00
Cc1cccc(-c2nc(CNCc3ccccc3-c3ccccc3CNC(=O)OC(C)(C)C)[nH]c2-c2ccc3ncnn3c2)n1 [Compound 29],pIC50,[1]; Table 11,6.00 to 7.00
same,pIC50,[2],6.00 to 7.00
Cc1cccc(-c2nc(CNCc3ccccc3-c3cccc(CNC(=O)OC(C)(C)C)c3)[nH]c2-c2ccc3ncnn3c2)n1 [Compound 30],pIC50,[1]; Table 11,6.00 to 7.00
same,pIC50,[2],6.00 to 7.00
Cc1cccc(-c2nc(CNCc3ccccc3-c3ccc(CNC(=O)OC(C)(C)C)cc3)[nH]c2-c2ccc3ncnn3c2)n1 [Compound 31],pIC50,[1]; Table 11,6.00 to 7.00
same,pIC50,[2],6.00 to 7.00
Cc1cccc(-c2nc(CNCc3ccccc3-c3ccccc3CN)[nH]c2-c2ccc3ncnn3c2)n1 [Compound 32],pIC50,[1]; Table 11,6.00 to 7.00
same,pIC50,[2],6.00 to 7.00
Cc1cccc(-c2nc(CNCc3ccccc3-c3cccc(CN)c3)[nH]c2-c2ccc3ncnn3c2)n1 [Compound 33],pIC50,[1]; Table 11,6.00 to 7.00
same,pIC50,[2],6.00 to 7.00
Cc1cccc(-c2nc(CNCc3ccccc3-c3ccc(CN)cc3)[nH]c2-c2ccc3ncnn3c2)n1 [Compound 34],pIC50,[1]; Table 11,6.00 to 7.00
same,pIC50,[2],6.00 to 7.00
Cc1cccc(-c2nc(CNCc3ccccc3-c3ccc(F)cc3)[nH]c2-c2ccc3ncnn3c2)n1 [Compound 35],pIC50,[1]; Table 11,7.30 to 10.00
same,pIC50,[2],8.00 to 10.00
Cc1cccc(-c2nc(CNCc3ccccc3-c3ccc(F)c(F)c3)[nH]c2-c2ccc3ncnn3c2)n1 [Compound 36],pIC50,[1]; Table 11,7.00 to 7.30
same,pIC50,[2],7.00 to 8.00

# — patent publication US20210130473A1, “TGFßR1 INHIBITOR-ASGR ANTIBODY CONJUGATES AND USES THEREOF” (Silverback Therapeutics, Inc., priority 2019, published 2021)
